Laboratory results from the supplement of paper PMC10307832.

Tests used:
Experiment in all cases: relative viability (nuclei count vs DMSO), 5 days (fraction); higher = more cells survive
[1] = system: NCI-H1703
How it was run: (§1)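 Medians of duplicate plates are given as relative viability. That measure is the nuclei count in treated wells divided by the count in vehicle wells. Counts were taken on 4× images of lung cancer cell lines in 1536-well plates, 5 days after pin-tool dosing the day after seeding with one drug alone or a fixed anchor-drug dose plus five library-drug doses (not always all listed) in √10 steps.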

[2] = system: EBC-1
How it was run: as §1

[3] = system: NCI-H522
How it was run: as §1

[4] = system: A549
How it was run: as §1

[5] = system: NCI-H1299
How it was run: as §1

[6] = system: NCI-H1648
How it was run: as §1

[7] = system: NCI-H2342
How it was run: as §1

[8] = system: IA-LM
How it was run: as §1

[9] = system: SW 900
How it was run: as §1

[10] = system: Calu-6
How it was run: as §1

[11] = system: NCI-H1563
How it was run: as §1

[12] = system: NCI-H1623
How it was run: as §1

Question: What does the source list for `Cc1cnc(-c2cnc(NCCNc3ccc(C#N)cn3)nc2-c2ccc(Cl)cc2Cl)[nH]1` + O=C(c1cc(Cc2n[nH]c(=O)c3ccccc23)ccc1F)N1CCN(C(=O)C2CC2)CC1 [Olaparib] (partner 8 µM)?
Answer: relative viability ([1]; first compound 0.08 µM): 0.48; relative viability ([1]; first compound 0.253 µM): 0.378; relative viability ([1]; first compound 0.8 µM): 0.448; relative viability ([1]; first compound 2.53 µM): 0.486; relative viability ([2]; first compound 0.08 µM): 0.619; relative viability ([2]; first compound 0.253 µM): 0.608; relative viability ([2]; first compound 0.8 µM): 0.673; relative viability ([2]; first compound 2.53 µM): 0.9; relative viability ([3]; first compound 0.08 µM): 0.641; relative viability ([3]; first compound 0.253 µM): 0.668; relative viability ([3]; first compound 0.8 µM): 0.681; relative viability ([3]; first compound 2.53 µM): 0.643; relative viability ([4]; first compound 0.08 µM): 0.233; relative viability ([4]; first compound 0.253 µM): 0.264; relative viability ([4]; first compound 0.8 µM): 0.288; relative viability ([4]; first compound 2.53 µM): 0.3; relative viability ([5]; first compound 0.08 µM): 0.953; relative viability ([5]; first compound 0.253 µM): 0.957; relative viability ([5]; first compound 0.8 µM): 0.968; relative viability ([5]; first compound 2.53 µM): 0.856; relative viability ([6]; first compound 0.08 µM): 0.723; relative viability ([6]; first compound 0.253 µM): 0.761; relative viability ([6]; first compound 0.8 µM): 1.2; relative viability ([6]; first compound 2.53 µM): 0.865; relative viability ([7]; first compound 0.08 µM): 0.438; relative viability ([7]; first compound 0.253 µM): 0.387; relative viability ([7]; first compound 0.8 µM): 0.43; relative viability ([7]; first compound 2.53 µM): 0.439; relative viability ([8]; first compound 0.08 µM): 0.77; relative viability ([8]; first compound 0.253 µM): 0.766; relative viability ([8]; first compound 0.8 µM): 0.87; relative viability ([8]; first compound 2.53 µM): 0.709; relative viability ([9]; first compound 0.08 µM): 0.827; relative viability ([9]; first compound 0.253 µM): 0.913; relative viability ([9]; first compound 0.8 µM): 0.848; relative viability ([9]; first compound 2.53 µM): 0.561; relative viability ([10]; first compound 0.08 µM): 0.532; relative viability ([10]; first compound 0.253 µM): 0.547; relative viability ([10]; first compound 2.53 µM): 0.468

Question: What does the source list for `O=C(O)CCCCC(CCSCc1ccccc1)SCc1ccccc1` (centres undefined) [CPI-613] + CCNC(=O)c1noc(-c2cc(C(C)C)c(O)cc2O)c1-c1ccc(CN2CCOCC2)cc1 [Luminespib] (partner 0.01 µM)?
Answer: relative viability ([11]; first compound 5 µM): 0.491; relative viability ([11]; first compound 15.81 µM): 0.501; relative viability ([11]; first compound 50 µM): 0.552; relative viability ([11]; first compound 158.11 µM): 0.357; relative viability ([11]; first compound 500 µM): 0.316; relative viability ([3]; first compound 5 µM): 1.15; relative viability ([3]; first compound 15.81 µM): 1.01; relative viability ([3]; first compound 50 µM): 1.19; relative viability ([3]; first compound 158.11 µM): 0.974; relative viability ([3]; first compound 500 µM): 1.16; relative viability ([7]; first compound 5 µM): 0.798; relative viability ([7]; first compound 15.81 µM): 0.738; relative viability ([7]; first compound 50 µM): 0.543; relative viability ([7]; first compound 158.11 µM): 0.668; relative viability ([7]; first compound 500 µM): 0.756; relative viability ([9]; first compound 5 µM): 0.162; relative viability ([9]; first compound 15.81 µM): 0.166; relative viability ([9]; first compound 50 µM): 0.209; relative viability ([9]; first compound 158.11 µM): 0.17; relative viability ([9]; first compound 500 µM): 0.0842; relative viability ([12]; first compound 5 µM): 0.405; relative viability ([12]; first compound 15.81 µM): 0.436; relative viability ([12]; first compound 50 µM): 0.54; relative viability ([12]; first compound 158.11 µM): 0.389; relative viability ([12]; first compound 500 µM): 0.447

Question: What does the source list for `O=C(O)CCCCC(CCSCc1ccccc1)SCc1ccccc1` (centres undefined) [CPI-613] + Cc1nc(Nc2ncc(C(=O)Nc3c(C)cccc3Cl)s2)cc(N2CCN(CCO)CC2)n1 [Dasatinib] (partner 0.075 µM)?
Answer: relative viability ([11]; first compound 5 µM): 0.455; relative viability ([11]; first compound 15.81 µM): 0.443; relative viability ([11]; first compound 50 µM): 0.436; relative viability ([11]; first compound 158.11 µM): 0.461; relative viability ([11]; first compound 500 µM): 0.456; relative viability ([3]; first compound 5 µM): 0.818; relative viability ([3]; first compound 15.81 µM): 1.01; relative viability ([3]; first compound 50 µM): 0.922; relative viability ([3]; first compound 158.11 µM): 0.84; relative viability ([3]; first compound 500 µM): 0.494; relative viability ([7]; first compound 5 µM): 0.315; relative viability ([7]; first compound 15.81 µM): 0.275; relative viability ([7]; first compound 50 µM): 0.315; relative viability ([7]; first compound 158.11 µM): 0.286; relative viability ([7]; first compound 500 µM): 0.294; relative viability ([9]; first compound 5 µM): 0.692; relative viability ([9]; first compound 15.81 µM): 0.542; relative viability ([9]; first compound 50 µM): 0.686; relative viability ([9]; first compound 158.11 µM): 0.262; relative viability ([9]; first compound 500 µM): 0.121; relative viability ([12]; first compound 5 µM): 0.592; relative viability ([12]; first compound 15.81 µM): 0.566; relative viability ([12]; first compound 50 µM): 0.549; relative viability ([12]; first compound 158.11 µM): 0.39; relative viability ([12]; first compound 500 µM): 0.569

Question: With `O=C(O)CCCCC(CCSCc1ccccc1)SCc1ccccc1` (centres undefined) [CPI-613] + N=C(N)NC(=N)NCCc1ccccc1 [Phenformin] (partner 250 µM) as the compound, how does the relative viability ([11]; first compound 5 µM) read?
Answer: 0.638

Question: What about the relative viability ([11]; first compound 15.81 µM) of the same compound?
Answer: 0.588

Question: And the relative viability ([11]; first compound 50 µM)?
Answer: 0.637

Question: And the relative viability ([11]; first compound 158.11 µM)?
Answer: 0.503

Question: What about the relative viability ([11]; first compound 500 µM) of the same compound?
Answer: 0.27

Question: And the relative viability ([3]; first compound 5 µM)?
Answer: 0.681

Question: And the relative viability ([3]; first compound 15.81 µM)?
Answer: 0.672

Question: What about the relative viability ([3]; first compound 50 µM) of the same compound?
Answer: 0.625

Question: And the relative viability ([3]; first compound 158.11 µM)?
Answer: 0.588

Question: What about the relative viability ([3]; first compound 500 µM) of the same compound?
Answer: 0.399

Question: And the relative viability ([4]; first compound 5 µM)?
Answer: 0.162

Question: What about the relative viability ([4]; first compound 15.81 µM) of the same compound?
Answer: 0.172

Question: What about the relative viability ([4]; first compound 50 µM) of the same compound?
Answer: 0.178

Question: What about the relative viability ([4]; first compound 158.11 µM) of the same compound?
Answer: 0.131

Question: And the relative viability ([4]; first compound 500 µM)?
Answer: 0.107

Question: And the relative viability ([7]; first compound 5 µM)?
Answer: 0.636

Question: What about the relative viability ([7]; first compound 15.81 µM) of the same compound?
Answer: 0.589

Question: What about the relative viability ([7]; first compound 50 µM) of the same compound?
Answer: 0.586

Question: What about the relative viability ([7]; first compound 158.11 µM) of the same compound?
Answer: 0.487

Question: What about the relative viability ([7]; first compound 500 µM) of the same compound?
Answer: 0.638

Question: And the relative viability ([9]; first compound 5 µM)?
Answer: 0.579

Question: What about the relative viability ([9]; first compound 15.81 µM) of the same compound?
Answer: 0.542

Question: What about the relative viability ([9]; first compound 50 µM) of the same compound?
Answer: 0.4

Question: What about the relative viability ([9]; first compound 158.11 µM) of the same compound?
Answer: 0.305

Question: And the relative viability ([9]; first compound 500 µM)?
Answer: 0.03

Question: And the relative viability ([12]; first compound 5 µM)?
Answer: 0.63

Question: What about the relative viability ([12]; first compound 15.81 µM) of the same compound?
Answer: 0.565

Question: What about the relative viability ([12]; first compound 50 µM) of the same compound?
Answer: 0.573

Question: What about the relative viability ([12]; first compound 158.11 µM) of the same compound?
Answer: 0.488

Question: What about the relative viability ([12]; first compound 500 µM) of the same compound?
Answer: 0.551
